Test results: paper PMC3616073, “Engineering Agatoxin, a Cystine-Knot Peptide from Spider Venom, as a Molecular Probe for In Vivo Tumor Imaging” (PLoS ONE, 2013)
Like-named read-outs stand apart in the source and are kept apart here. Where a SMILES comes first, the peptide text is derived from it. Bridges are numbered along the chain shown (N, C = ends).

Assays:
[1] = molecular target: T1, αvβ3 integrins expressed on U87MG glioblastoma cells (Homo sapiens, UniProt P05106+P06756); assay: Competition binding assay on U87MG glioblastoma cells (FLAG-AgRP 7A competitor, flow cytometry); conditions: competition with 5 nM FLAG-AgRP 7A, 5×10^4 U87MG cells in IBB, 4 hr at 4 °C, mean of three experiments ± SD
T1 construct: U87MG glioblastoma cells, which express high levels of αvβ3 integrin receptors; host or cells: U87MG human glioblastoma cells
Excerpt: For simplicity, we chose to move forward with AgTx 7C ΔR21 for in vivo molecular imaging studies. To visualize tumor targeting and tissue biodistribution, we conjugated the near-infrared dye Alexa Fluor 680 (AF680) to the N-terminal amino group of AgTx 7C ΔR21 (Fig. S3A). We also synthesized AF680-labeled versions of AgRP 7C and EETI 2.5F for comparison studies. AF680-labeled EETI RDG, which contains a scrambled integrin recognition sequence, [30], served as a non-binding control. AF680-labeled knottin peptides were purified by RP-HPLC and had the expected masses for the addition of one dye molecule (Fig. S3B, C). Competition binding assays were used to determine if AF680 conjugation affected integrin recognition. FLAG-AgRP 7A was used to compete for knottin binding to U87MG human glioblastoma cells (Fig. 4).
Figure 4 Unlabeled and AF680-labeled knottins bind U87MG cells with high affinity. […]
Competition binding assays were performed on K562 leukemia cells transfected to express high levels of αvβ3 integrins. […] Cells were washed with BPBS and analyzed by flow cytometry on a FACSCalibur instrument (BD Biosciences), and data was quantified using FlowJo software (TreeStar). IC50 values were determined by nonlinear regression analysis using KaleidaGraph (Synergy Software). […]

[2] = molecular target: T2, αvβ3 integrin on K562-αvβ3 cells (Homo sapiens, UniProt P05106+P06756); assay: Competition binding assay on K562-αvβ3 cells (FLAG-AgRP 7A competitor, flow cytometry); conditions: competition with 0.5 nM FLAG-AgRP 7A, 5×10^4 K562-αvβ3 cells in IBB, 4 hr at 4 °C, anti-FLAG flow cytometry, mean of three experiments ± SD, read-out: IC50 (relative binding affinity to K562-αvβ3 cells)
T2 construct: expressed in transfected cells; host or cells: K562 leukemia cells (courtesy of S. Blystone)
Excerpt: Competition binding assays were used to measure the relative affinities of the AgTx 7C variants and AgRP 7C to K562 leukemia cells transfected to express high levels of αvβ3 integrin [50]. […] FLAG-AgRP 7A contains an N-terminal FLAG epitope tag (DYKDDDDK), which allows detection of cell surface binding by flow cytometry using a fluorescently labeled anti-FLAG antibody.
Figure 3 Engineered AgTx 7C variants bind to K562-αvβ3 cells with similar IC50 values. Varying concentrations of AgRP 7C and AgTx 7C variants were incubated with FLAG-AgRP 7A and allowed to compete for binding to integrin receptors expressed on the surface of K562-αvβ3 cells. Representative competition binding curves are shown, and are plotted as knottin concentration versus the fraction of FLAG-AgRP 7A bound. IC50 values reported as mean of three experiments ± SD. TEXT PRINTED IN THE PICTURE: AgRP 7C: IC50 (nM): 2.2 ± 1.0 | AgTx 7C ΔR21: IC50 (nM): 2.3 ± 0.5 | AgTx 7C P22G R24I: IC50 (nM): 8.1 ± 1.6 | AgTx 7C ΔR21 P22G R24I: IC50 (nM): 5.1 ± 1.6 | AgTx 7C ΔR9: IC50 (nM): 2.5 ± 0.4
Competition binding assays were performed on K562 leukemia cells transfected to express high levels of αvβ3 integrins. Varying concentrations of AgRP 7C and AgTx variants were incubated with 5×10^4 K562-αvβ3 cells in IBB for 4 hr at 4 °C, along with a constant concentration (0.5 nM) of recombinantly expressed FLAG-AgRP 7A knottin as a competitor. FLAG-AgRP 7A binds with high affinity to αvβ3 integrin and contains an N-terminal epitope tag (DYKDDDDK), allowing cell surface binding to be detecting using an anti-FLAG antibody. Care was taken to allow adequate time for equilibrium binding and to avoid ligand depleting conditions. […] Cells were washed with BPBS and analyzed by flow cytometry on a FACSCalibur instrument (BD Biosciences), and data was quantified using FlowJo software (TreeStar). IC50 values were determined by nonlinear regression analysis using KaleidaGraph (Synergy Software). […]

[3] = parameters: method as in PMID 20124048, PMID 19276378; conditions: cited from earlier work; for Stability in serum and blood: radiolabeled probes of earlier studies

Compound | IC50 [2] [nM] | Stability in serum and blood [3] | further results
AF680-labeled EETI 2.5F: EETI 2.5F with one Alexa Fluor 680 dye at the N-terminus (CPRPRGDNPPLTCKQDSDCLAGCVCGPNGFCG; Alexa Fluor 680 on N-terminal amine; 3 disulfides) | – | – | IC50 ([1]; AF680-labeled knottin, read-out: IC50, AF680 labeled): 4 ± 0.2 nM
CC[C@H](C)[C@@H]1NC(=O)[C@@H](NC(=O)CN)CSSC[C@@H]2NC(=O)[C@@H]3CSSC[C@@H](C(=O)N[C@H](C(=O)O)[C@@H](C)O)NC(=O)[C@H](CCC(=O)O)NC(=O)[C@@H]4CSSC[C@H](NC(=O)[C@H]([C@@H](C)CC)NC(=O)[C@H](CSSC[C@H](NC(=O)[C@H](CCCNC(=N)N)NC(=O)CNC(=O)[C@H](Cc5ccc(O)cc5)NC(=O)[C@H](CC(=O)O)NC(=O)[C@H](CCC(=O)O)NC(=O)[C@H](C)NC1=O)C(=O)N[C@@H]([C@@H](C)O)C(=O)N[C@@H](Cc1c[nH]c5ccccc15)C(=O)NCC(=O)NCC(=O)N[C@@H]([C@@H](C)O)C(=O)N1CCC[C@H]1C(=O)N3)NC(=O)CNC(=O)[C@H](CCCNC(=N)N)NC(=O)CNC(=O)[C@H](CCCNC(=N)N)NC2=O)C(=O)N[C@@H](Cc1ccc(O)cc1)C(=O)NCC(=O)N[C@@H](CCCNC(=N)N)C(=O)NCC(=O)N[C@@H](CC(=O)O)C(=O)N[C@@H](CC(N)=O)C(=O)N[C@@H](CC(=O)O)C(=O)N[C@@H](CC(C)C)C(=O)N[C@@H](CCCNC(=N)N)C(=O)N4 [AgTx 7C P22G R24I] (H-GCIAEDYGRCTWGGTPCCRGRGCICYGRGDNDLRCECT-OH; disulfide 2-18, 10-23, 17-37, 25-35) | 8.1 ± 1.6 | – | –
CC(C)C[C@@H]1NC(=O)[C@@H]2CSSC[C@@H]3NC(=O)[C@H]([C@@H](C)O)NC(=O)[C@H](C)NC(=O)[C@H](C)NC(=O)[C@@H]4CCCN4C(=O)[C@H](CC(=O)O)NC(=O)[C@H](CSSC[C@H](NC(=O)CN)C(=O)N[C@@H](C(C)C)C(=O)N[C@@H](CCCNC(=N)N)C(=O)N[C@@H](CC(C)C)C(=O)N[C@@H](Cc4c[nH]cn4)C(=O)N[C@@H](CCC(=O)O)C(=O)N[C@@H](CO)C(=O)N2)NC(=O)[C@H](CSSC[C@@H](C(=O)N[C@@H](CCCNC(=N)N)C(=O)O)NC(=O)[C@H](Cc2ccc(O)cc2)NC(=O)[C@@H]2CSSC[C@H](NC(=O)[C@H](Cc4ccc(O)cc4)NC3=O)C(=O)N[C@@H](Cc3ccc(O)cc3)C(=O)NCC(=O)N[C@@H](CCCNC(=N)N)C(=O)NCC(=O)N[C@@H](CC(=O)O)C(=O)N[C@@H](CC(N)=O)C(=O)N[C@@H](CC(=O)O)C(=O)N[C@@H](CC(C)C)C(=O)N[C@@H](CCCNC(=N)N)C(=O)N2)NC(=O)[C@@H]2CCCN2C(=O)[C@H](C(C)C)NC(=O)[C@H](CCC(N)=O)NC(=O)[C@H](CCC(N)=O)NC(=O)CNC1=O [AgRP 7C] (H-GCVRLHESCLGQQVPCCDPAATCYCYGRGDNDLRCYCR-OH; disulfide 2-17, 9-23, 16-37, 25-35) | – | remarkably stable in serum and blood | Metabolic breakdown in the liver, kidneys, and tumor ([3]; compared to EETI 2.5F): higher levels of metabolic breakdown
CC[C@H](C)[C@@H]1NC(=O)[C@@H](NC(=O)CN)CSSC[C@@H]2NC(=O)[C@@H]3CSSC[C@@H](C(=O)N[C@H](C(=O)O)[C@@H](C)O)NC(=O)[C@H](CCC(=O)O)NC(=O)[C@@H]4CSSC[C@H](NC(=O)[C@H]([C@@H](C)CC)NC(=O)[C@H](CSSC[C@H](NC(=O)[C@H](CCCNC(=N)N)NC(=O)CNC(=O)[C@H](Cc5ccc(O)cc5)NC(=O)[C@H](CC(=O)O)NC(=O)[C@H](CCC(=O)O)NC(=O)[C@H](C)NC1=O)C(=O)N[C@@H]([C@@H](C)O)C(=O)N[C@@H](Cc1c[nH]c5ccccc15)C(=O)NCC(=O)NCC(=O)N[C@@H]([C@@H](C)O)C(=O)N1CCC[C@H]1C(=O)N3)NC(=O)CNC(=O)CNC(=O)[C@H](CCCNC(=N)N)NC2=O)C(=O)N[C@@H](Cc1ccc(O)cc1)C(=O)NCC(=O)N[C@@H](CCCNC(=N)N)C(=O)NCC(=O)N[C@@H](CC(=O)O)C(=O)N[C@@H](CC(N)=O)C(=O)N[C@@H](CC(=O)O)C(=O)N[C@@H](CC(C)C)C(=O)N[C@@H](CCCNC(=N)N)C(=O)N4 [AgTx 7C ΔR21 P22G R24I] (H-GCIAEDYGRCTWGGTPCCRGGCICYGRGDNDLRCECT-OH; disulfide 2-18, 10-22, 17-36, 24-34) | 5.1 ± 1.6 | – | –
CC(C)C[C@@H]1NC(=O)[C@@H]2CSSC[C@@H](C(=O)NCC(=O)O)NC(=O)[C@H](Cc3ccccc3)NC(=O)CNC(=O)[C@H](CC(N)=O)NC(=O)[C@@H]3CCCN3C(=O)CNC(=O)[C@@H]3CSSC[C@H](NC(=O)[C@H]([C@@H](C)O)NC(=O)[C@H](CC(C)C)NC(=O)[C@@H]4CCCN4C(=O)[C@@H]4CCCN4C(=O)[C@H](CC(N)=O)NC(=O)[C@H](CC(=O)O)NC(=O)CNC(=O)[C@H](CCCNC(=N)N)NC(=O)[C@@H]4CCCN4C(=O)[C@H](CCCNC(=N)N)NC(=O)[C@@H]4CCCN4C(=O)[C@@H](NC(=O)CN)CSSC[C@H](NC(=O)CNC(=O)[C@H](C)NC1=O)C(=O)N[C@@H](C(C)C)C(=O)N3)C(=O)N[C@@H](CO)C(=O)N[C@@H](CCC(N)=O)C(=O)N[C@@H](CC(=O)O)C(=O)N[C@@H](CO)C(=O)N[C@@H](CC(=O)O)C(=O)N2 [EETI 2.5F] (H-GCPRPRGDNPPLTCSQDSDCLAGCVCGPNGFCG-OH; disulfide 2-24, 14-26, 20-32) | – | remarkably stable in serum and blood | –
CC[C@H](C)[C@@H]1NC(=O)[C@@H](NC(=O)CN)CSSC[C@@H]2NC(=O)[C@@H]3CSSC[C@@H](C(=O)N[C@H](C(=O)O)[C@@H](C)O)NC(=O)[C@H](CCC(=O)O)NC(=O)[C@@H]4CSSC[C@H](NC(=O)[C@H](CCCNC(=N)N)NC(=O)[C@H](CSSC[C@H](NC(=O)[C@H](CCCNC(=N)N)NC(=O)CNC(=O)[C@H](Cc5ccc(O)cc5)NC(=O)[C@H](CC(=O)O)NC(=O)[C@H](CCC(=O)O)NC(=O)[C@H](C)NC1=O)C(=O)N[C@@H]([C@@H](C)O)C(=O)N[C@@H](Cc1c[nH]c5ccccc15)C(=O)NCC(=O)NCC(=O)N[C@@H]([C@@H](C)O)C(=O)N1CCC[C@H]1C(=O)N3)NC(=O)[C@@H]1CCCN1C(=O)CNC(=O)[C@H](CCCNC(=N)N)NC2=O)C(=O)N[C@@H](Cc1ccc(O)cc1)C(=O)NCC(=O)N[C@@H](CCCNC(=N)N)C(=O)NCC(=O)N[C@@H](CC(=O)O)C(=O)N[C@@H](CC(N)=O)C(=O)N[C@@H](CC(=O)O)C(=O)N[C@@H](CC(C)C)C(=O)N[C@@H](CCCNC(=N)N)C(=O)N4 [AgTx 7C ΔR21] (H-GCIAEDYGRCTWGGTPCCRGPCRCYGRGDNDLRCECT-OH; disulfide 2-18, 10-22, 17-36, 24-34) | 2.3 ± 0.5 | – | IC50 ([1]; unlabeled knottin, read-out: IC50, Unlabeled): 10 ± 1 nM
